Source: PubChem BioAssay AID720589 (Broad Institute, 2013)
Calls of active or inactive are those of the source.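 Rule for the calls: active = fitted curve drops below -35% activity at a concentration within twice the top valid tested dose; inconclusive = no clear call, values can overlap the other calls; inactive = signal rising instead of falling, among other cases.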

System: HepG2 viability, ATP luminescence (CellTiter-Glo), 72 h
Assay: HepG2 hepatoma cell cytotoxicity, dose response, cytotoxicity control, CellTiter-Glo luminescence, cherry-pick, set 3 (AID 720589)
Settings: not given

| SMILES | AC35 |
| --- | --- |
| CCN(Cc1ccccc1)c1ccc(/C=N/N=C(N)N)cc1 | 4.18 µM |
| C[C@H](CO)N1C[C@H](C)[C@H](CN(C)CC2CCCCC2)Oc2ccc(NC(=O)Nc3cccc4ccccc34)cc2C1=O | 14.9 µM |
| CC(=O)Nc1ccc(S(=O)(=O)Nc2ccc(N3CCCCC3)cc2)cc1 | 19.2 µM |
| C(=N\Nc1nc2ccccc2[nH]1)/c1ccccn1 | 7.93 µM |
| CCOc1cc(/C=N/Nc2cc(C)nc(-n3nc(C)cc3C)n2)ccc1O | 1.14 µM |
| Nc1nc(=S)c2ncn([C@@H]3O[C@H](CO)[C@@H](O)[C@H]3O)c2[nH]1 | 2.56 µM |
| C(=N\Nc1nc2ccccc2s1)/c1ccccn1 | 4.83 µM |
| CCN(CC)C(=O)CN1C(=O)C(=O)c2ccccc21 | 7.54 µM |
| CC(=NNc1cc(C)c2ccccc2n1)c1ccccn1 | 2.66 µM |
| COc1ccc(Nc2ncnc3ccc(Br)cc23)c(OC)c1 | 15.6 µM |
| COc1cccc(O)c1CN1CCC(C(=O)Nc2ccc(-c3cccc(C)c3)cc2)CC1 | 10.4 µM |
| COc1cc(C(=O)N2CCC(N3CCN(C)CC3)CC2)ccc1Nc1ncc2c(n1)N(C)c1ccccc1C(=O)N2C | 11.4 µM |
| CC(=O)OC1CC(OC2C(O)CC(OC3C(O)CC(OC4CCC5(C)C(CCC6C5CC(O)C5(C)C(C7=CC(=O)OC7)CCC65O)C4)OC3C)OC2C)OC(C)C1OC1OC(CO)C(O)C(O)C1O (centres undefined) | 0.285 µM |
| O=C(O)c1ccc(N/N=C/c2ccc3c(c2)OCO3)cc1 | 5.97 µM |
| C[C@@H]1CN([C@@H](C)CO)C(=O)c2cc(NC(=O)Nc3ccccc3)ccc2O[C@@H]1CN(C)Cc1ccc(C(=O)Nc2ccccc2N)cc1 | 2.69 µM |
| O=c1[nH]c(=O)n([C@H]2C[C@H](O)[C@@H](CO)O2)cc1C(F)(F)F | 15.6 µM |
| Cc1ccc(S(=O)(=O)Nc2ccc3c(c2)C(=O)N([C@@H](C)CO)C[C@H](C)[C@@H](CN(C)Cc2ccc(C(F)(F)F)cc2)OCCCC[C@@H](C)O3)cc1 | 13.2 µM |
| C[C@]12CC[C@H](O)C[C@H]1CC[C@@H]1[C@@H]2C[C@@H](O)[C@]2(C)[C@@H](C3=CC(=O)OC3)CC[C@]12O | 0.373 µM |
| O=C1NC(=O)N(Cc2ccccc2)C(=O)/C1=C\C=C\c1ccco1 | 5.18 µM |
| O=C(NC1CCCC1)N1CCCCN2[C@@H](CO)[C@@H](c3ccc(/C=C/c4ccccc4)cc3)[C@@H]2C1 | 9.99 µM |
| COc1ccc([Si](C)(C)[C@H]2[C@H](CCO)O[C@@]3(C(=O)N(c4ccccc4)c4ccccc43)[C@@H]2C)cc1 | 10.5 µM |
| C[C@H](CO)N1C[C@H](C)[C@H](CN(C)Cc2ccc(C(=O)Nc3ccccc3N)cc2)Oc2c(cccc2N(C)C)C1=O | 0.615 µM |
| CCOC(=O)[C@]12Cc3ccc(C)cc3[C@H]1N(C1CCCCC1)C(=O)c1ccccc12 | 3.95 µM |
| C[C@@H]1CN([C@@H](C)CO)C(=O)c2cc(NC(=O)c3ccccc3)ccc2O[C@@H](C)CCCCO[C@H]1CN(C)C(=O)Nc1cccc2ccccc12 | 0.927 µM |
| O=C1NC(=O)N(Cc2ccco2)C(=O)/C1=C/C=C/c1ccco1 | 10.3 µM |

| SMILES | AC35 |
| --- | --- |
| Cc1c(CC(=O)NCCCC(=O)O)c(=O)oc2cc3c(cc12)CCC(C)(C)O3 | 16.3 µM |
| Cc1[nH][nH]c(=O)c1C(c1c(C)[nH][nH]c1=O)c1cn(Cc2ccc(Cl)c(Cl)c2)c2ccccc12 | 13.5 µM |
| CCCCc1c(-c2ccccc2OC)ncn1Cc1ccc(C(C)(C)C)cc1 | 8.48 µM |
| CN(C)c1ncnc2c1ccn2C1OC(CO)C(O)C1O (centres undefined) | 0.178 µM |
| O=C(NC[C@@H]1N[C@@H](CO)[C@H]1c1ccc(C2=CCCCC2)cc1)c1cccc(F)c1 | 7.71 µM |
| CC(=NNc1ccc2ccccc2n1)c1ccccn1 | 1.53 µM |
| CN(C)c1ccc(/C=N/Nc2nc3ccccc3o2)cc1 | 18.2 µM |
| Nc1nc(N)c2cc(Sc3ccc4ccccc4c3)ccc2n1 | 3.74 µM |
| C[C@@H]1CN([C@@H](C)CO)C(=O)Cc2cc(N(C)C)ccc2O[C@H]1CN(C)Cc1ccc(C(=O)Nc2ccccc2N)cc1 | 2.38 µM |
| CN(C)c1ccc(C=c2c3ccccc3n3c2c2c([n+]3C)CCCC2)cc1 | 2.14 µM |
| C(=Cc1nc2ccccc2o1)c1ccc2c(c1)OCO2 | 19.5 µM |
| CN1C/C(=C/c2ccsc2)C(=O)/C(=C/c2ccsc2)C1 | 13.7 µM |
| CCCN1C/C(=C/c2ccc3c(c2)OCO3)C(=O)/C(=C/c2ccc3c(c2)OCO3)C1 | 12.5 µM |
| OC[C@H]1O[C@@H](n2cnc3c(NCc4ccco4)ncnc32)[C@H](O)[C@@H]1O | 12.1 µM |
| NC(Cc1ccc(C(F)(F)F)cc1)c1csc(NC(=O)Nc2ccccc2Cc2ccccc2)n1 (centres undefined) | 12.4 µM |
| CCc1nc(N)nc(N)c1-c1ccc(Cl)cc1 | 6.43 µM |
| CN(C)CC1CCC/C(=C\c2ccc(OC(=O)c3ccc(Cl)cc3)cc2)C1=O (centres undefined) | 9.84 µM |
| COc1cc2c(OC(C)=O)c3c(c(-c4ccc5c(c4)OCO5)c2cc1OC)C(=O)OC3 | 0.465 µM |
| CCc1ccc(/C=C2\SC(=S)N(CCCC(=O)NCCCN3CCOCC3)C2=O)cc1 | 10.8 µM |
| COc1ccc(OC)c(Cc2cnc3nc(N)nc(N)c3c2C)c1 | 0.0574 µM |
| Cc1ccc(S(=O)(=O)Nc2ccc3c(c2)C(=O)N([C@@H](C)CO)C[C@@H](C)[C@H](CN(C)Cc2ccc(C(F)(F)F)cc2)OCCCC[C@H](C)O3)cc1 | 13.3 µM |
| O=C1/C(=C\c2ccccc2)CN(C(=O)CCN2CCCCC2)C/C1=C/c1ccccc1 | 3.95 µM |
| N#C[C@H]1[C@H](c2ccc(C#Cc3ccccc3F)cc2)[C@@H](CO)N1C(=O)C1CCCCC1 | 12.9 µM |
| O=C(CCc1ccccc1)NC(c1cccs1)c1cc(Cl)c2cccnc2c1O (centres undefined) | 7.07 µM |
| C[C@]12CCC3C(CCC4=CC(O)CC[C@@]43/C=N/O)C1(O)CCC2C1=CC(=O)OC1 (some centres undefined) | 1.57 µM |

| SMILES | AC35 |
| --- | --- |
| C[C@H](CO)N1C[C@H](C)[C@@H](CN(C)Cc2ccc(Oc3ccccc3)cc2)Oc2ccc(NS(=O)(=O)c3ccc(Cl)cc3)cc2CC1=O | 10.3 µM |
| C[C@@H]1CN([C@H](C)CO)C(=O)c2cc(NC(=O)c3ccccc3)ccc2O[C@@H](C)CCCCO[C@H]1CN(C)C(=O)Nc1cccc2ccccc12 | 1.54 µM |
| C[C@H](CO)N1C[C@H](C)[C@H](CN(C)Cc2ccc(C(=O)Nc3ccccc3N)cc2)Oc2ccc(N(C)C)cc2CC1=O | 0.19 µM |
| Cc1ccc(C(=O)O/N=C(\N)c2ccccn2)cc1 | 13.2 µM |
| C[C@@H]1CN([C@@H](C)CO)C(=O)c2cccc(NS(=O)(=O)c3ccc(F)cc3)c2O[C@@H]1CN(C)Cc1ccc(C(=O)Nc2ccccc2N)cc1 | 1.45 µM |
| COc1cc2c(cc1NC(=O)CN(C)Cc1ccc(OC)c(OC)c1)oc1ccccc12 | 15.6 µM |
| Cc1cc(-c2nc3ccccc3s2)ccc1N | 0.0502 µM |
| CN1C(=O)c2cc(NC(=O)c3ccc(C(F)(F)F)cc3)ccc2OC[C@@H]2O[C@@H](CC(=O)NC3Cc4ccccc4C3)CC[C@H]21 | 7.45 µM |
| C=C(C(=O)c1ccccc1)C(C(=C)C(=O)c1ccccc1)c1ccc(OC)cc1 | 8.69 µM |
| CCOc1cc2[nH]c(=S)n(Cc3ccc(C(=O)NCCN(CC)CC)cc3)c(=O)c2cc1OCC | 15.8 µM |
| OCC1OC(n2cnc3c(NCc4ccco4)ncnc32)C(O)C1O (centres undefined) | 3.82 µM |
| CCCCOc1ccc(NC(=O)C(=O)NCCCn2ccnc2)cc1 | 13.7 µM |
| Nc1ccc(-c2cc3ccccc3c(=O)o2)cc1 | 0.05 µM |
| CCN1/C(=C/C(C)=C/c2sc3ccccc3[n+]2CC)Sc2ccccc21 | 0.838 µM |
| Cc1ccc(S(=O)(=O)Nc2ccc3c(c2)C(=O)N([C@@H](C)CO)C[C@@H](C)[C@@H](CN(C)Cc2ccc(C(=O)Nc4ccccc4N)cc2)O3)cc1 | 6.33 µM |
| C[C@H]1CN([C@@H](C)CO)C(=O)Cc2cc(NC(=O)CCC(F)(F)F)ccc2O[C@H]1CN(C)Cc1ccc(C(=O)Nc2ccccc2N)cc1 | 2.13 µM |
| Cc1cc(C)c2sc(NNC(=O)c3ccc(S(=O)(=O)N4CCc5ccccc5C4)cc3)nc2c1 | 3.76 µM |
| C[C@@H]1CN([C@@H](C)CO)C(=O)c2cc(NS(=O)(=O)c3ccccc3)ccc2O[C@@H]1CN(C)Cc1ccc(C(=O)Nc2ccccc2N)cc1 | 7.52 µM |
| Cc1noc(C)c1NC(=O)Nc1ccc2c(c1)CC(=O)N([C@H](C)CO)C[C@@H](C)[C@@H](CN(C)Cc1ccc(Cl)c(Cl)c1)O2 | 7.54 µM |
| Nc1cc2c(cc1Br)[nH]c(=O)c1ccccc12 | 19.2 µM |
| Cc1ccc(C(C)C)c(OCc2ccc(C(=O)N/N=C/c3ccc(O)cc3O)cc2)c1 | 4.24 µM |
| COC1C(O)C(C)OC(OC2C(Oc3cccc4c(O)c5c(=O)oc6ccc(C)c7c(=O)oc(c34)c5c67)OC(C)C(O)C2O)C1O (centres undefined) | 14.3 µM |
| Cc1cc2c(C(C)C)c(O)c(O)c(C=O)c2c(O)c1-c1c(C)cc2c(C(C)C)c(O)c(O)c(C=O)c2c1O | 13.7 µM |
| C[C@@H]1CN([C@H](C)CO)C(=O)c2cc(NC(=O)Nc3ccccc3)ccc2O[C@@H]1CN(C)Cc1ccc(C(=O)Nc2ccccc2N)cc1 | 8.38 µM |
| C[C@H](CO)N1C[C@H](C)[C@H](CN(C)CC2CCCCC2)Oc2ccc(NC(=O)CCCCCC(=O)Nc3ccccc3N)cc2CC1=O | 0.219 µM |

System: not listed separately
Assay: as above
Settings: HepG2 viability, ATP luminescence (CellTiter-Glo), 72 h; at 0.011 µM; stronger effect = lower value; 0% = untreated, negative = ATP loss

| SMILES | max activity |
| --- | --- |
| CCS(=O)(=O)N1Cc2ccccc2CC1C(=O)Nc1nnc(SCc2ccc(C#N)cc2)s1 (centres undefined) | 21.9% (inactive) |
| Cc1ccsc1C(=O)OCC(=O)NCCC1=CCCCC1 | -13% (inactive) |

Same assay, conditions: HepG2 viability, ATP luminescence (CellTiter-Glo), 72 h; at 0.1 µM; stronger effect = lower value; 0% = untreated, negative = ATP loss

| SMILES | max activity |
| --- | --- |
| Cc1ccc(C(C(=O)NCc2ccco2)N(C(=O)CNC(=O)c2cccs2)c2c(C)cc(C)cc2C)cc1 (centres undefined) | -27% (inactive) |

Same assay, conditions: HepG2 viability, ATP luminescence (CellTiter-Glo), 72 h; at 0.3 µM; stronger effect = lower value; 0% = untreated, negative = ATP loss

| SMILES | max activity |
| --- | --- |
| C[C@H]1CN([C@@H](C)CO)C(=O)c2cc(NS(=O)(=O)c3ccc(Cl)cc3)ccc2O[C@H]1CN(C)Cc1ccc(Cl)c(Cl)c1 | -20.4% (inactive) |

Same assay, conditions: HepG2 viability, ATP luminescence (CellTiter-Glo), 72 h; at 2.85 µM; stronger effect = lower value; 0% = untreated, negative = ATP loss

| SMILES | max activity |
| --- | --- |
| O=C(CN1C(=O)C(=O)c2ccccc21)c1ccc(Cl)cc1 | -20.2% (inactive) |
| Cc1cc(C(=O)Nc2ccc3c(c2)C(=O)N(C)[C@@H]2CC[C@H](CC(=O)N[C@H](C)c4ccccc4)O[C@H]2CO3)no1 | -28.2% (inactive) |
| N#C[C@@H]1[C@H](c2ccc(C#Cc3ccccc3F)cc2)[C@@H](CO)N1C(=O)c1cccnc1 | -22% (inactive) |

Same assay, conditions: HepG2 viability, ATP luminescence (CellTiter-Glo), 72 h; at 26 µM; stronger effect = lower value; 0% = untreated, negative = ATP loss

| SMILES | max activity |
| --- | --- |
| CCC1=Nc2cc(C(=O)NCC3CCCO3)ccc2Sc2ccc(Br)cc21 (centres undefined) | -32.3% (inactive) |
| O=C1CCC2S/C(=C/Nc3ccc(C(F)(F)F)cc3)C(=O)N12 (centres undefined) | 25.6% (inactive) |
